Starred links: 1 amine or outer side, 2 acyl side, 3 side chain; linkers in the order of their positions; H or OH if unused. Positions of bridges follow the written chain, without caps; N, C: chain ends. Residues, ends and D or L forms follow the SMILES beside them. *: point of attachment. C18 diacid = O=C(O)CCCCCCCCCCCCCCCCC(=O)*; γGlu = O=C(O)[C@H](CCC(=O)[*:2])N[*:1]; AEEA = NCCOCCOCC(=O)O
Tests used:
[1] = Thioflavin T (ThT) assay: lagtime and peptide recovery; format: physicochemical; settings: assay terminated after 45 hours; for LagTime (h) at pH 4.0: ThT, 37° C., shaking
Method in brief: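 ThT (final about 1 μM) was added to peptide supernatants at pH 4.0 and 6.5 and incubated at 37 °C with orbital shaking for 45 h. Fluorescence (ex 444/em 485 nm) was read every 20 min, and lag-time was taken as the time to onset of signal rise. Recovery is the RP-UPLC (215 nm) total peak area after vs. before incubation.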

[2] = PK of CNP compounds after i.v. and s.c. administration to rats; settings: male, Sprague Dawley, in vivo, iv, rat, i.v., about 100 nmol/kg; for clearance: read-out: Cl (L/hr/kg), i.v. administration (converted); for half-life: read-out: T½ (hr), i.v. administration (converted)
Method in brief: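 Plasma exposure was quantified by protein precipitation and turboflow LC-MS/MS in SRM mode. Rats received either 100 nmol/kg intravenously or 300 nmol/kg subcutaneously, with sublingual blood taken at baseline and at points up to 72 h. Per-animal NCA gave clearance as Dose/AUCinf, and results are averaged over 4-6 animals.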

Row | SMILES | LagTime (h) at pH 4.0 [1] | clearance [2] | half-life [2] | LagTime (h) at pH 6.5 ([1]; ThT assay, pH 6.5, 37° C.)
1 | CC[C@H](C)[C@@H]1NC(=O)[C@H](CCCNC(=N)N)NC(=O)[C@H](CC(=O)O)NC(=O)[C@H](CC(C)C)NC(=O)[C@@H]2CCCN2C(=O)[C@H](CC(C)C)NC(=O)CNC(=O)[C@H](Cc2ccccc2)NC(=O)[C@@H](NC(=O)CNC(=O)[C@H](CO)NC(=O)[C@H](CO)NC(=O)[C@@H](NC(=O)CNC(=O)[C@@H](NC(=O)[C@H](Cc2c[nH]cn2)NC(=O)[C@H](CCC(N)=O)NC(=O)[C@H](C)NC(=O)CNC(=O)[C@H](Cc2c[nH]cn2)NC(=O)[C@H](Cc2ccc(O)cc2)NC(=O)[C@H](CCCCN)NC(=O)[C@H](CCCNC(=N)N)NC(=O)[C@H](C)NC(=O)COCCOCCNC(=O)COCCOCCNC(=O)CC[C@H](NC(=O)CCCCCCCCCCCCCCCCC(=O)O)C(=O)O)[C@@H](C)O)C(C)C)CSSC[C@@H](C(=O)O)NC(=O)CNC(=O)[C@H](CC(C)C)NC(=O)CNC(=O)[C@H](CO)NC(=O)[C@H](CC(C)C)NC(=O)[C@H](CO)NC(=O)CNC1=O [compound 1351] ({C18 diacid-γGlu-AEEA-AEEA}-ARKYHGAQHTGVSSGCFGLPLDRIGSLSGLGC-OH; disulfide 16-32) | 45 h | 0.0093 L/h/kg | 6.07 h | 
2 | CC[C@H](C)[C@@H]1NC(=O)[C@H](CCCNC(=N)N)NC(=O)[C@H](CC(=O)O)NC(=O)[C@H](CC(C)C)NC(=O)[C@@H]2CCCN2C(=O)[C@H](CC(C)C)NC(=O)CNC(=O)[C@H](Cc2ccccc2)NC(=O)[C@@H](NC(=O)CNC(=O)[C@H](CO)NC(=O)[C@H](CO)NC(=O)[C@@H](NC(=O)CNC(=O)[C@@H](NC(=O)[C@H](CCCCN)NC(=O)[C@H](CCC(N)=O)NC(=O)[C@H](C)NC(=O)CNC(=O)[C@H](Cc2c[nH]cn2)NC(=O)[C@H](Cc2ccc(O)cc2)NC(=O)COCCOCCNC(=O)COCCOCCNC(=O)COCCOCCNC(=O)CC[C@H](NC(=O)CCCCCCCCCCCCCCCCC(=O)O)C(=O)O)[C@@H](C)O)C(C)C)CSSC[C@@H](C(=O)O)NC(=O)CNC(=O)[C@H](CC(C)C)NC(=O)CNC(=O)[C@H](CO)NC(=O)[C@H](CC(C)C)NC(=O)[C@H](CO)NC(=O)CNC1=O [compound 1352] ({C18 diacid-γGlu-AEEA-AEEA-AEEA}-YHGAQKTGVSSGCFGLPLDRIGSLSGLGC-OH; disulfide 13-29) |  | 0.0102 L/h/kg | 6.34 h | 23 h
3 | CC[C@H](C)[C@@H]1NC(=O)[C@H](CCCNC(=N)N)NC(=O)[C@H](CCC(=O)O)NC(=O)[C@H](CC(C)C)NC(=O)[C@@H]2CCCN2C(=O)[C@H](CC(C)C)NC(=O)CNC(=O)[C@H](Cc2ccccc2)NC(=O)[C@@H](NC(=O)CNC(=O)[C@H](CO)NC(=O)[C@H](CO)NC(=O)[C@H](CC(C)C)NC(=O)CNC(=O)[C@H](CCCCN)NC(=O)[C@H](CCCCN)NC(=O)[C@H](CCC(N)=O)NC(=O)[C@H](C)NC(=O)CNC(=O)[C@H](CCCCN)NC(=O)[C@H](Cc2ccc(O)cc2)NC(=O)[C@H](CCCCN)NC(=O)[C@H](CCCNC(=N)N)NC(=O)[C@H](C)NC(=O)[C@H](CCC(N)=O)NC(=O)[C@@H]2CCCN2C(=O)[C@H](Cc2c[nH]cn2)NC(=O)[C@H](CCC(=O)O)NC(=O)[C@H](CCC(N)=O)NC(=O)CC[C@H](NC(=O)CC[C@H](NC(=O)CC[C@H](NC(=O)CC[C@H](NC(=O)CCCCCCCCCCCCCCCCC(=O)O)C(=O)O)C(=O)O)C(=O)O)C(=O)O)CSSC[C@@H](C(=O)O)NC(=O)CNC(=O)[C@H](CC(C)C)NC(=O)CNC(=O)[C@H](CO)NC(=O)[C@H](CC(C)C)NC(=O)[C@H](CO)NC(=O)CNC1=O [compound 9483] ({C18 diacid-γGlu-γGlu-γGlu-γGlu}-QEHPQARKYKGAQKKGLSSGCFGLPLERIGSLSGLGC-OH; disulfide 21-37) | 45 h |  |  | 

From patent US20240209028A1, “CNP COMPOUNDS” (priority 2022, published 2024)
